Reference: ChEMBL document CHEMBL1147390, “The structure of palominol by interpretation of two-dimensional NMR shift correlation experiments: isolation and structure determination of isopalominol” (J Nat Prod, 1993)
Values after ≈ are worked out from the molar mass of the structure shown. Active and inactive are the calls of the source. The calls are words filed in the database; no cut-off is given here.

Key:
Escherichia coli [1] = assay: Antimicrobial activity against Escherichia coli at 1 ug/disk; format: functional, organism-based
Staphylococcus aureus [2] = assay: Antimicrobial activity against Staphylococcus aureus at 10 ug/disk; format: functional, organism-based
Staphylococcus aureus [3] = assay: Antimicrobial activity against Staphylococcus aureus at 1 ug/disk; format: functional, organism-based
Escherichia coli [4] = assay: Antimicrobial activity against Escherichia coli at 10 ug/disk; format: functional, organism-based
Escherichia coli [5] = assay: Antimicrobial activity against Escherichia coli at 5 ug/disk; format: functional, organism-based
HCT-116 = assay: Cytotoxicity against human HCT116 cells; format: functional, cell-based
Staphylococcus aureus [6] = assay: Antimicrobial activity against Staphylococcus aureus at 5 ug/disk; format: functional, organism-based

Question: What does the source list for `CC(C)=C1[C@H]2CC/C(C)=C/CC/C(C)=C/C[C@]2(C)C[C@@H]1O` (relative stereo)?
Answer: Activity (Escherichia coli [1]): inactive; Activity (Staphylococcus aureus [2]): inactive; Activity (Staphylococcus aureus [3]): inactive; Activity (Escherichia coli [4]): inactive; Activity (Escherichia coli [5]): inactive; IC50 (HCT-116): 9 mg/L (≈ 31.2 µM); Activity (Staphylococcus aureus [6]): inactive

Question: With `CC(C)=C1[C@H](O)C[C@@]2(C)C/C=C(\C)CC/C=C(\C)CC[C@H]12` (relative stereo) [ISOPALOMINOL] as the compound, how does the Activity (Escherichia coli [1]) read?
Answer: inactive

Question: What about the Activity (Staphylococcus aureus [2]) of the same compound?
Answer: inactive

Question: And the Activity (Staphylococcus aureus [3])?
Answer: inactive

Question: What about the Activity (Escherichia coli [4]) of the same compound?
Answer: inactive

Question: And the Activity (Escherichia coli [5])?
Answer: inactive

Question: And the IC50 (HCT-116)?
Answer: 30 mg/L (≈ 104 µM)

Question: And the Activity (Staphylococcus aureus [6])?
Answer: inactive

Question: With `CC(C)=C1C(=O)C[C@@]2(C)C/C=C(\C)CC/C=C(\C)CC[C@H]12` [DOLABELLANE] as the compound, how does the Activity (Escherichia coli [1]) read?
Answer: inactive

Question: What about the Activity (Staphylococcus aureus [2]) of the same compound?
Answer: inactive

Question: What about the Activity (Staphylococcus aureus [3]) of the same compound?
Answer: inactive

Question: What about the Activity (Escherichia coli [4]) of the same compound?
Answer: inactive

Question: What about the Activity (Escherichia coli [5]) of the same compound?
Answer: inactive

Question: What about the IC50 (HCT-116) of the same compound?
Answer: 10 mg/L (≈ 34.9 µM)

Question: And the Activity (Staphylococcus aureus [6])?
Answer: inactive

Question: `C/C1=C\C[C@]2(C)CC=C(C(C)(C)O)[C@H]2CC/C(C)=C/CC1` [PALOMINOL] was tested. Which Activity (Escherichia coli [1]) did it give?
Answer: inactive

Question: And the Activity (Staphylococcus aureus [2])?
Answer: inactive

Question: And the Activity (Staphylococcus aureus [3])?
Answer: inactive

Question: And the Activity (Escherichia coli [4])?
Answer: inactive

Question: And the Activity (Escherichia coli [5])?
Answer: inactive

Question: What about the IC50 (HCT-116) of the same compound?
Answer: 10 mg/L (≈ 34.7 µM)

Question: And the Activity (Staphylococcus aureus [6])?
Answer: inactive
